The values below come from patent publication US20230372350A1, “ASTROCYTIC TRPA1 CHANNEL INHIBITION AS A NOVEL NEUROPROTECTIVE THERAPEUTIC TARGET IN THE PRODROMAL PHASES OF ALZHEIMER'S DISEASE” (priority 2020, published 2023).

The test system of test [1] is dendritic spines of CA1 pyramidal neurons, Thy1-eYFP-H-APP/PS1-21 mice. In words: Chronic intraperitoneal treatment: analysis of dendritic spines. The format is in vivo, mouse. The following applies: 3 months, treated from 14th postnatal day. The protocol:
In some experiments, APP/PS1-21 mice were crossed with the Thy1-eYFP-H murine transgenic line which expresses the fluorescent protein eYFP in specific neuron subpopulations. This solution is then diluted to 1 μg/μl in an isotonic solution containing 1% Pluronic F-127 and 0.9% NaCl. The animals are injected daily intraperitoneally at a dose of 5 mg/kg of body mass. Sterile 0.5 ml BD MicroFine syringes with no dead volume, equipped with a 30G (0.3 mm) needle are used for the injections. The injection is started from the 14th postnatal day (appearance of the expression of the Thy1gene promoter in the hippocampus, triggering the overexpression of Aβ in the APP/PS1-21 murine model) Hippocampal sections from Thy1-eYFP-H-APP/PS1-21 mice were imaged using a Zeiss Airyscan module with a 100× (NA 1.4) Plan Apochromat oil immersion objective. Confocal image stacks (increment of 200 nm) were performed with a voxel size of 0.041×0.041×0.2 μm. The 3D analysis of the spine density, of the spine volume and the spine classification was performed using NeuronStudio software (Icahn School of Medicine at Mount Sinai, USA). The length of individual dendrites was automatically measured as well as the number and volume of associated dendritic spines which were classified as […], thin or mushroom using automated 3D shape classification. For each condition, 10 dendrites were imaged and 700 dendritic spines were analyzed.

The subject of test [2] is models of neuropathic and inflammatory pain. To be noted: rats, oral administration 100 mg/kg; Eid et al. 2008; cited from earlier work.
For test [3], the system named is CA1 pyramidal neurons. In words: Acute in vitro application on hippocampal slices: CA1 neuronal activity. The format is cell-based, mouse. The following applies: 1-month old APP/PS1-21 animals. The protocol: Coronal sections of the hippocampus (thickness 300 μm) were prepared from APP/PS1-21 transgenic mice (1 month and 3 months old) or from WT mice from the same litter. The mice were sacrificed by decerebration and decapitation. The brain was quickly removed and sectioned in ice-cold ACSF containing (in mM) : 2.5 KCl, 7 MgCl2, 0.5 CaCl2, 1.2 NaHPO4, 25 NaHCO3, 11D-glucose and 234 sucrose bubbled with 95% of O2 and 5% of CO2 with a V[…] vibratome (Leica, Germany). The sections containing the hippocampus were placed in ACSF containing (in mM) : 126 NaCl, 2.5 KCl, 1.2 MgCl2, 2.5 CaCl2, 1.2 NaH2PO4 bubbled with 95% of O2 and 5% of CO2 and supplemented with 1 mM of sodium pyruvate at room temperature for a recovery period. Whole-cell recordings were performed on visually identified CA1 pyramidal neuron somas. […] The sEPSCs and their kinetics were analyzed, after a stabilization period of 10 minutes, 5 minutes from the recordings. Access resistance was constantly monitored and recordings were excluded from this study when this parameter varied more than 20% during the experiment. Recordings were analyzed using the Clampfit module of pClamp8 software (Molecular Devices, USA) with a single one at 20 pA to exclude miniature sEPSCs.

As to `CC(C)c1ccc(NC(=O)Cn2cnc3c2c(=O)n(C)c(=O)n3C)cc1` [HC030031, 2-(1,3-Dimethyl-2,6-dioxo-1,2,3,6-tetrahydro-7H-purin-7-yl)-N-(4-isopropylphenyl)acetamide], in test [1], the dendritic spine density was 1.32±0.08 spine/μm, the mushroom-shaped spines worked out at 64.0±1.7% and the thin spines worked out at 26.7±2.0%. Also, the analgesic effect entry in test [2] is given as “significant analgesic effect”. For the same molecule, the “neuronal hyperactivity (CA1)” value in test [3] is recorded as “fully restored”.
